Key:
[1] = target: T1, Phosphatidylinositol 4,5-bisphosphate 3-kinase catalytic subunit gamma isoform (Homo sapiens, UniProt P48736); test: Inhibition of PI3K p120gamma (unknown origin) using phosphatidylinositol 4,5-bisphosphate as substrate in presence of ATP incubated for 60 mins by ADP-Glo assay
Homo sapiens [2] = species: Homo sapiens; test: Selectivity index, ratio of inhibition for PI3Kalpha (unknown origin) to inhibition for PI3K p120 gamma (unknown origin) using phosphatidylinositol 4,5-bisphosphate as substrate in presence of ATP incubated for 60 mins by ADP-Glo assay
Homo sapiens [3] = species: Homo sapiens; test: Selectivity index, ratio of inhibition for PI3Kdelta (unknown origin) to inhibition for PI3K p120 gamma (unknown origin) using phosphatidylinositol 4,5-bisphosphate as substrate in presence of ATP incubated for 60 mins by ADP-Glo assay
[4] = target: T1, Phosphatidylinositol 4,5-bisphosphate 3-kinase catalytic subunit gamma isoform; test: Inhibition of PI3Kgamma in human THP-1 cells assessed as reduction in Akt phosphorylation at S473 residue incubated for 60 mins measured after 120 mins by alphalisa assay; type: cell-based
[5] = Intrinsic clearance in cryopreserved human hepatocytes assessed as per million cells at 0.5 uM by LC-MS/MS analysis; type: ADME, cell-based, Hepatocyte
[6] = Intrinsic clearance in rat hepatocytes assessed as per million cells; type: ADME, cell-based, Hepatocyte
[7] = Clearance in Sprague-Dawley rat at 0.25 mg/kg, iv measured upto 8 hrs by LC/MS/MS analysis; type: ADME, organism-based; conditions: in vivo
Cytochrome P450 1A2 = target: T2, Cytochrome P450 1A2 (Homo sapiens, UniProt P05177); test: Inhibition of CYP1A2 (unknown origin) using phenacetin as substrate measured after 5 to 20 mins in presence of NADPH by LC-MS/MS analysis; type: ADME
T2 sequence (P05177 whole entry): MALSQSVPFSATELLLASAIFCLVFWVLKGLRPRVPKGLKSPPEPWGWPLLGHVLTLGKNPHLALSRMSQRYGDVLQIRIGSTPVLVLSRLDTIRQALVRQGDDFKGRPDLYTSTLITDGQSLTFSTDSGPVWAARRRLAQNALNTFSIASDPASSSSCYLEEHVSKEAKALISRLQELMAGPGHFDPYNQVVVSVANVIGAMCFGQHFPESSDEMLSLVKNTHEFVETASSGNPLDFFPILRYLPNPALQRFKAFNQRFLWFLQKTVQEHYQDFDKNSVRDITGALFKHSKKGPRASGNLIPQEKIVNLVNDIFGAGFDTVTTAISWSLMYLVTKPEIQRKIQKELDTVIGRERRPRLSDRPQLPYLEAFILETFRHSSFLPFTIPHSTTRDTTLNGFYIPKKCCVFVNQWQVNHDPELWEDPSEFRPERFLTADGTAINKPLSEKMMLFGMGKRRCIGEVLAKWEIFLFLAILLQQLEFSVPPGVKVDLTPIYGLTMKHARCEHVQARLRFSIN

Cytochrome P450 2D6 = Cytochrome P450 2D6 (Homo sapiens, UniProt P10635); test: Inhibition of CYP2D6 (unknown origin) using diclofenac as substrate measured after 5 to 20 mins in presence of NADPH by LC-MS/MS analysis; type: ADME
Chain of Cytochrome P450 2D6 (P10635 whole entry): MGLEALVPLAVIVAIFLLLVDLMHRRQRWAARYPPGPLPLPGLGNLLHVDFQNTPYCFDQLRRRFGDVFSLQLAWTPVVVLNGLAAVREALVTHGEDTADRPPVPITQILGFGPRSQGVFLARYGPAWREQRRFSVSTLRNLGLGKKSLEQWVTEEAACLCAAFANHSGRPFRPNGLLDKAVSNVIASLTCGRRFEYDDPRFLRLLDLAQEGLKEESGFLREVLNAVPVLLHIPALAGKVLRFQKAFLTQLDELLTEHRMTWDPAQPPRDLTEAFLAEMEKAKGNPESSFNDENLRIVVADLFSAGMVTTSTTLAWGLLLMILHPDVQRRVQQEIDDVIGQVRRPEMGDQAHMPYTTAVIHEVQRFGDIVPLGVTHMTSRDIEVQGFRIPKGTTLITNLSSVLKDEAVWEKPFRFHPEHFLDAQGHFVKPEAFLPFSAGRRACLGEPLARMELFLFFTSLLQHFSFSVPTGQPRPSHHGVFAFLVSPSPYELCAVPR

Cytochrome P450 2C9 = Cytochrome P450 2C9 (Homo sapiens, UniProt P11712); test: Inhibition of CYP2C9 (unknown origin) using diclofenac as substrate measured after 5 to 20 mins in presence of NADPH by LC-MS/MS analysis; type: ADME
Chain of Cytochrome P450 2C9 (P11712 whole entry): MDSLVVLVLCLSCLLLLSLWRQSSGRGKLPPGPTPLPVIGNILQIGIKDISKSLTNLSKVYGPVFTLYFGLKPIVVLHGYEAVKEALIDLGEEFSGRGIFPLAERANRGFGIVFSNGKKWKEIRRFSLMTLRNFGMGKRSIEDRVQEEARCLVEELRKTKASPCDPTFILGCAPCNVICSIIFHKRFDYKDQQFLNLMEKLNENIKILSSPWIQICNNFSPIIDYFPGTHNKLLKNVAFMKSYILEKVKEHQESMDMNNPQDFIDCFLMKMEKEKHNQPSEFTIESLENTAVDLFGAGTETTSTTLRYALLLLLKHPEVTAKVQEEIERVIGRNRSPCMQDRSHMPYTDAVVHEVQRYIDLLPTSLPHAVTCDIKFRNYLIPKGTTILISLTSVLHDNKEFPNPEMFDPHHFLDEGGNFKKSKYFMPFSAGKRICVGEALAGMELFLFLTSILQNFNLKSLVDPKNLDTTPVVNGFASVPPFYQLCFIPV

Cytochrome P450 2C19 = Cytochrome P450 2C19 (Homo sapiens, UniProt P33261); test: Inhibition of CYP2C19 (unknown origin) using S-mephenytoin as substrate measured after 5 to 20 mins in presence of NADPH by LC-MS/MS analysis; type: ADME
Chain of Cytochrome P450 2C19 (P33261 whole entry): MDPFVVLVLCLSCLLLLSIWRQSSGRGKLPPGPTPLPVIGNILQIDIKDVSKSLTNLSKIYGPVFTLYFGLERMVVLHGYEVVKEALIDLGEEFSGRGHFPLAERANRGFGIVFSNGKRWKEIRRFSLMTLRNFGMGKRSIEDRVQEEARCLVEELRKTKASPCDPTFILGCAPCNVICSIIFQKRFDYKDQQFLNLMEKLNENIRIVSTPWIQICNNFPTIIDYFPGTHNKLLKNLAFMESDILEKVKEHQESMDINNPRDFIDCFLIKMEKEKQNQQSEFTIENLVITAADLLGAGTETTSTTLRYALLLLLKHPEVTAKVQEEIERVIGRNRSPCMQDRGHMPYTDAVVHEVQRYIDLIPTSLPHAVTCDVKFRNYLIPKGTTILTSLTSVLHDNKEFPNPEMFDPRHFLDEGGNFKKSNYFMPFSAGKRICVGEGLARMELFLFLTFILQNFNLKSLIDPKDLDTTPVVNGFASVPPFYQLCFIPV

Cytochrome P450 3A4 = Cytochrome P450 3A4 (Homo sapiens, UniProt P08684); test: Inhibition of CYP3A4 (unknown origin) using midazolam as substrate measured after 5 to 20 mins in presence of NADPH by LC-MS/MS analysis; type: ADME
Chain of Cytochrome P450 3A4 (P08684 whole entry): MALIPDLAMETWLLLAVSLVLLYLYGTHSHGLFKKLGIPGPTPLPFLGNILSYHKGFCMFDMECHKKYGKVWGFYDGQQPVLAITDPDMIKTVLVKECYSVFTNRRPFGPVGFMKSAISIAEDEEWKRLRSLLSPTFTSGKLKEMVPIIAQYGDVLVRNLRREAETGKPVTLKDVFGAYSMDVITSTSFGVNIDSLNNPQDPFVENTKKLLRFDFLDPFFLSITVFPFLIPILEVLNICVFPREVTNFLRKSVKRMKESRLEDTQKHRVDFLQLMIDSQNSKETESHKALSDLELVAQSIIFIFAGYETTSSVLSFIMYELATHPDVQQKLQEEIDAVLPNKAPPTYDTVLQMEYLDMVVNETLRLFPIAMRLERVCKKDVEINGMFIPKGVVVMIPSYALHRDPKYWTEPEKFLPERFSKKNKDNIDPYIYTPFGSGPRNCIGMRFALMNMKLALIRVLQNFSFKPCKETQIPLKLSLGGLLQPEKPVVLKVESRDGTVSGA

[8] = Apparent permeability in human Caco2 cells; type: ADME, cell-based; conditions: Caco-2
[9] = Efflux ratio of permeability in human Caco2 cells; type: ADME, cell-based; conditions: Caco-2

T1 sequence (P48736 whole entry, canonical isoform): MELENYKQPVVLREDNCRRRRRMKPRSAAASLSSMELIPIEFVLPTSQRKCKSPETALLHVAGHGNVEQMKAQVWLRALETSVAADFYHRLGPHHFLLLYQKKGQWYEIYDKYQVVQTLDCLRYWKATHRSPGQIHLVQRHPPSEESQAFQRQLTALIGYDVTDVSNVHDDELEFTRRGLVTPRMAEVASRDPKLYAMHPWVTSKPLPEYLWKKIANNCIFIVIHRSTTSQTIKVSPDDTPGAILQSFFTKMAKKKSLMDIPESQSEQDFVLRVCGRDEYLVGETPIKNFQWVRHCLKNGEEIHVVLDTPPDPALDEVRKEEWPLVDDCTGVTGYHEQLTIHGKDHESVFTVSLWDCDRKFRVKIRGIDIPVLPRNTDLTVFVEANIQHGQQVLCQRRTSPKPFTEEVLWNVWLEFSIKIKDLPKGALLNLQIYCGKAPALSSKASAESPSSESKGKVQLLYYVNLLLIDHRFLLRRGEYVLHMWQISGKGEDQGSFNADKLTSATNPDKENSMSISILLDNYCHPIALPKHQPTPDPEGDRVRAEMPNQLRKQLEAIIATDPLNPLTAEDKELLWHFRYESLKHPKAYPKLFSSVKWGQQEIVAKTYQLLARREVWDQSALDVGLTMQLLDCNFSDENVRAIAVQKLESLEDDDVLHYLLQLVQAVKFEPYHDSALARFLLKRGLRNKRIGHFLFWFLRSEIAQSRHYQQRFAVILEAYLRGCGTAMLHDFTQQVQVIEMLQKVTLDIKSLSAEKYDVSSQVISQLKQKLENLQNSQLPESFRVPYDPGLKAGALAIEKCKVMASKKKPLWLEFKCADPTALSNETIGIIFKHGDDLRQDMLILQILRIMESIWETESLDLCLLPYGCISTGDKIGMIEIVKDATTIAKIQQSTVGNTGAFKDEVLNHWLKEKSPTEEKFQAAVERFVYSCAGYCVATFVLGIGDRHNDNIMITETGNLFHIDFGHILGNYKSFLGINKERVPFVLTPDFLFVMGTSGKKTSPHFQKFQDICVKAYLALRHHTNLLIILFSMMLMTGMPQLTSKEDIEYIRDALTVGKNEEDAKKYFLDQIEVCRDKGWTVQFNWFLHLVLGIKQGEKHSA

Row | IC50 [1] [nM] | Selectivity ratio (Homo sapiens [2]) | Selectivity ratio (Homo sapiens [3]) | IC50 [4] [nM] | CLH [5] [µL/min/1e6 cells] | CLH [6] [µL/min/1e6 cells] | clearance [7] [mL/min/kg] | IC50 (Cytochrome P450 1A2) [nM] | IC50 (Cytochrome P450 2D6) [nM] | IC50 (Cytochrome P450 2C9) [nM] | IC50 (Cytochrome P450 2C19) [nM] | IC50 (Cytochrome P450 3A4) [nM] | Papp [8] [×10⁻⁶ cm/s] | efflux ratio [9] | Compound
1 | 1.2 | 918 | 335 | 40 | < 1.2 | 2 | – | – | – | – | – | – | – | – | Cc1cc(-c2c[nH]c3ncc(-c4cc5c(c(C(F)(F)F)c4)C(=O)N([C@@H](C)C4CC4)C5)cc23)ccc1C(=O)O
2 | 2.2 | 1520 | 1210 | 90 | 20 | 46 | 115 | – | – | – | – | – | – | – | Cc1cc(-c2c[nH]c3ncc(-c4cc(C)c5c(c4)CN([C@@H](C)C4CC4)C5=O)cc23)cc(C)c1C(=O)O
3 | 3.4 | 379 | 290 | 220 | – | – | – | 700 | 2000 | 300 | < 100 | 300 | – | – | Cc1cc(-c2cnc3[nH]cc(-c4ccncc4)c3c2)cc2c1C(=O)N([C@@H](C)C1CC1)C2
4 | 2.1 | 835 | 968 | 180 | 2.3 | 27 | – | – | – | – | – | – | – | – | Cc1cc(-c2cnc3[nH]cc(-c4ccc(C(C)(C)C(=O)O)cc4)c3c2)cc2c1C(=O)N([C@@H](C)C1CC1)C2
5 | 3.3 | 863 | 1400 | 150 | 1.7 | 16 | 30 | – | – | – | – | – | – | – | Cc1cc(-c2cnc3[nH]cc(-c4ccc(C5(C(=O)O)CC5)cc4)c3c2)cc2c1C(=O)N([C@@H](C)C1CC1)C2
6 | 2.8 | 433 | 505 | 78 | 19 | 51 | – | – | – | – | – | – | – | – | Cc1cc(-c2c[nH]c3ncc(-c4cc(C)c5c(c4)CN([C@@H](C)C4CC4)C5=O)cc23)ccc1C(=O)O
7 | 3.3 | 539 | 397 | 150 | 8 | 23 | 30 | – | – | – | – | – | – | – | Cc1cc(-c2c[nH]c3ncc(-c4cc(C)c5c(c4)CN([C@@H](C)C4CC4)C5=O)cc23)ccc1CC(=O)O
8 | 2.8 | 257 | 84 | 30 | 1.8 | < 1.2 | 467 | – | – | – | – | – | – | – | Cc1cc(-c2c[nH]c3ncc(-c4cc5c(c(C(F)(F)F)c4)C(=O)N([C@@H](C)C4CC4)C5)cc23)cc(C)c1C(=O)O
9 | 2.6 | 878 | 872 | 160 | 6.9 | 17 | – | – | – | – | – | – | – | – | Cc1cc(-c2cnc3[nH]cc(-c4ccc(CC(=O)O)cc4)c3c2)cc2c1C(=O)N([C@@H](C)C1CC1)C2
10 | 3.6 | 742 | 620 | 110 | 2.6 | 18 | – | – | – | – | – | – | – | – | C[C@@H](C1CC1)N1Cc2cc(-c3cnc4[nH]cc(-c5ccc(C6(C(=O)O)CC6)cc5)c4c3)cc(C(F)(F)F)c2C1=O
11 | 2.5 | 259 | 136 | 140 | 24 | 54 | 183 | – | – | – | – | – | 1.07 | 46.6 | Cc1cc(-c2cnc3[nH]cc(-c4ccc(C(=O)O)cc4)c3c2)cc2c1C(=O)N([C@@H](C)C1CC1)C2
12 | 6.8 | 253 | 901 | 800 | – | – | – | – | – | – | – | – | – | – | Cc1cc(-c2cnc3[nH]cc(-c4ccncc4)c3c2)cc2c1C(=O)N(C(C1CC1)C1CC1)C2
13 | 1.5 | 1020 | 289 | 50 | – | – | – | – | – | – | – | – | – | – | C[C@@H](C1CC1)N1Cc2cc(-c3cnc4[nH]cc(-c5cnn(C)c5)c4c3)cc(S(C)(=O)=O)c2C1=O
14 | 3.26 | 898 | 379 | 200 | – | – | – | – | – | – | – | – | – | – | Cc1cc(-c2cnc3[nH]cc(-c4cnn(C)c4)c3c2)cc2c1C(=O)N([C@@H](C)C1CC1)C2

Source: ChEMBL document CHEMBL4725475, “Discovery of Potent and Selective 7-Azaindole Isoindolinone-Based PI3Kγ Inhibitors” (ACS Med Chem Lett, 2020)
